Where two headings read alike, the source gives them in different places.
Key:
[1] = test system: HLA-A2.1-having EBV transformed B-cells (221A2.1); experiment: Cytotoxic activity of anti-tumor-associated antigen(MAGE3)-specific CTLs on the thirty-fifth day after the initiation of induction; details: 10 μg/ml
[2] = test system: anti-tumor-associated antigen(MAGE3)-specific CTLs; experiment: Expansion ratio of MAGE3-specific CTLs; type: cell-based, human; details: sample 10 μg/ml: induction +, 14 days
Description: (§1) CTLs prepared in item (1) of Example 2-1 were washed with 5HRPMI, and then made into a suspension having a concentration of 5×10^4 cells/ml. On the other hand, allogenic PBMCs not having HLA-A24 and HLA-A2.1 which were collected in the same manner as in item (1) of Example 1-1 were subjected to X-ray irradiation (3300R), and the cells were washed with the medium and then made into a suspension having a concentration of 5×10^6 cells/ml. These CTLs (2.5×10^4 cells) and allogenic PBMCs (1.25×10^7 cells) were suspended in 10 ml of 5HRPMI, and anti-CD3 antibody (manufactured by Janssen-Kyowa) was further added thereto so as to give a final concentration of 50 ng/ml. The mixture was placed into a flask of 12.5 cm^2 (manufactured by Falcon), and the cells were cultured in a wet-type CO2 incubator at 37° C. for 14 days. […] The expansion ratio (× times ratio) was calculated by dividing the cell count after the expansion by the cell count before the expansion.

[3] = test system: HLA-A2.1-having EBV transformed B-cells (221A2.1); details: for Cytotoxic Activity (%) E/T Ratio 3 / Cytotoxic Activity (%) E/T Ratio 10 / Cytotoxic Activity (%) E/T Ratio 1 / Cytotoxic Activity (%) E/T Ratio 30: FluMPA2.1; for Cytotoxic Activity (%): sample induction +
[4] = test system: anti-influenza virus memory CTLs (FluMPA2.1); type: cell-based, human
[5] = test system: HLA-A2.1-having EBV transformed B-cells (221A2.1); experiment: Specific cytotoxic activity of MAGE3-specific CTLs after expansion; type: cell-based, human; details: for cytotoxic activity after expansion for 14 days (in words): MAGE3-specific CTLs, sample 10 μg/ml during CTL induction and during expansion; for Cytotoxic Activity (%): sample induction +, expansion +
Description: as §1

[6] = test system: HLA-A2.1-having EBV transformed B-cells (221A2.1); details: for Cytotoxic Activity (%) E/T Ratio 3 / Cytotoxic Activity (%) E/T Ratio 10: FluMPA2.1
[7] = test system: HLA-A2.1-having EBV transformed B-cells (221A2.1); experiment: Specific cytotoxic activity of MART1-specific CTLs after expansion, EBV transformed B-cell target; type: cell-based, human; details: for Cytotoxic Activity (%): target cells 221A2.1, sample induction +, expansion +, peptide addition +
Description: (§2) In the evaluation, as target cells, there were used HLA-A2.1-having EBV transformed B-cells which were cultured in the absence of the epitope peptide (name of cells: 221A2.1); a cancer cell line-having HIA-A2.1 which was cultured for two nights in the presence of 100 U/ml IFN-γ (name of cells: 624mel; MART1 expressed cells having HLA-A2.1); or a cancer cell line not having HLA-A2.1 (name of cells: 888mel; MART1 expressed cells not having HLA-A2.1).
(§3) Stimulation by a peptide was not added at all during this culture. On the first day of the initiation of the culture, IL-2 was added so as to have a final concentration of 120 U/ml. […] However, in the group with no addition of the sample, the sample was not added even during medium exchange.

[8] = test system: 888mel; MART1 expressed cells not having HLA-A2.1
Description: as §2, §3

[9] = test system: HLA-A2.1-having EBV transformed B-cells (221A2.1); details: for Cytotoxic Activity (%) E/T Ratio 10: Example 3-2, REM method, FluMPA2.1, sample 10 μg/ml during CTL induction +, during expansion +, addition of EBV-B cells +
[10] = test system: anti-tumor-associated antigen(MART1)-specific CTLs; experiment: Expansion ratio of MART1-specific CTLs; type: cell-based, human; details: sample 10 μg/ml: induction +, 14 days
Description: as §1

[11] = test system: anti-influenza virus memory CTLs (FluMPA2.1); experiment: Expansion ratio of anti-influenza virus memory CTLs (FluMPA2.1), REM method (EBV-B cells added); type: cell-based, human; details: Example 3-2, sample 10 μg/ml during CTL induction +, addition of EBV-B cells +
[12] = Example 2-4, sample 10 μg/ml during CTL induction +, during expansion +, peptide addition +
[13] = Example 2-4, sample 10 μg/ml during CTL induction +, during expansion +, peptide addition −
[14] = Example 2-6, sample during CTL induction −, during expansion + (10 μg/ml), peptide addition +
[15] = Example 2-6, sample during CTL induction −, during expansion + (10 μg/ml), peptide addition −
[16] = Example 2-7, sample 10 μg/ml during CTL induction +, during expansion +, peptide addition +
[17] = Example 2-7, sample 10 μg/ml during CTL induction +, during expansion +, peptide addition −
[18] = Example 2-7, sample 10 μg/ml during CTL induction +, during expansion −, peptide addition +
[19] = Example 2-7, sample 10 μg/ml during CTL induction +, during expansion −, peptide addition −
[20] = Example 1-3, sample 10 μg/ml during CTL induction +, during culture with IL-2 +, peptide addition +
[21] = Example 1-3, sample 10 μg/ml during CTL induction +, during culture with IL-2 +, peptide addition −

Ardeparin sodium [L. M. W. Heparin, reference compound]
difference in the cytotoxic activity by the presence or absence of the addition during the induction [1]: almost no difference
Expansion Ratio [2]: × 433
Cytotoxic Activity (%) E/T Ratio 3 [3, 12]: 56.4%
Cytotoxic Activity (%) E/T Ratio 10 [3, 12]: 92.9%
Cytotoxic Activity (%) E/T Ratio 3 [3, 13]: 5.2%
Cytotoxic Activity (%) E/T Ratio 10 [3, 13]: 19.6%
Cytotoxic Activity (%) E/T Ratio 1 [3, 14]: 11.3%
Cytotoxic Activity (%) E/T Ratio 3 [3, 14]: 22.2%
Cytotoxic Activity (%) E/T Ratio 10 [3, 14]: 43.9%
Cytotoxic Activity (%) E/T Ratio 30 [3, 14]: 71.2%
Cytotoxic Activity (%) E/T Ratio 1 [3, 15]: 1.4%
Cytotoxic Activity (%) E/T Ratio 3 [3, 15]: 0%
Cytotoxic Activity (%) E/T Ratio 10 [3, 15]: 0.6%
Cytotoxic Activity (%) E/T Ratio 30 [3, 15]: 2.5%
Cytotoxic Activity (%) E/T Ratio 1 [3, 16]: 16.3%
Cytotoxic Activity (%) E/T Ratio 3 [3, 16]: 22.7%
Cytotoxic Activity (%) E/T Ratio 10 [3, 16]: 43.9%
Cytotoxic Activity (%) E/T Ratio 30 [3, 16]: 72.8%
Cytotoxic Activity (%) E/T Ratio 1 [3, 17]: 5.6%
Cytotoxic Activity (%) E/T Ratio 3 [3, 17]: 2.5%
Cytotoxic Activity (%) E/T Ratio 10 [3, 17]: 1.1%
Cytotoxic Activity (%) E/T Ratio 30 [3, 17]: 0.9%
Cytotoxic Activity (%) E/T Ratio 1 [3, 18]: 12.5%
Cytotoxic Activity (%) E/T Ratio 3 [3, 18]: 26.9%
Cytotoxic Activity (%) E/T Ratio 10 [3, 18]: 57.8%
Cytotoxic Activity (%) E/T Ratio 30 [3, 18]: 83.7%
Cytotoxic Activity (%) E/T Ratio 1 [3, 19]: 5.2%
Cytotoxic Activity (%) E/T Ratio 3 [3, 19]: 4.5%
Cytotoxic Activity (%) E/T Ratio 10 [3, 19]: 6.6%
Cytotoxic Activity (%) E/T Ratio 30 [3, 19]: 7.0%
Expansion Ratio ([4]; Example 2-4, sample 10 μg/ml during CTL induction +, during expansion +): × 240
Expansion Ratio ([4]; Example 2-6, sample during CTL induction −, during expansion + (10 μg/ml)): × 353
Expansion Ratio ([4]; Example 2-7, sample 10 μg/ml during CTL induction +, during expansion +): × 243
Expansion Ratio ([4]; Example 2-7, sample 10 μg/ml during CTL induction +, during expansion −): × 253
cytotoxic activity after expansion for 14 days (in words) [5]: specific, high cytotoxic activity
Cytotoxic Activity (%) ([5]; peptide addition +, E/T ratio 3): 65.3%
Cytotoxic Activity (%) ([5]; peptide addition +, E/T ratio 9): 104.8%
Cytotoxic Activity (%) ([5]; peptide addition −, E/T ratio 3): 2.6%
Cytotoxic Activity (%) ([5]; peptide addition −, E/T ratio 9): 3.7%
Cytotoxic Activity (%) E/T Ratio 3 [6, 20]: 49.0%
Cytotoxic Activity (%) E/T Ratio 10 [6, 20]: 71.7%
Cytotoxic Activity (%) E/T Ratio 3 [6, 21]: 11.7%
Cytotoxic Activity (%) E/T Ratio 10 [6, 21]: 14.2%
Cytotoxic Activity (%) E/T Ratio 10 ([6]; Example 1-5, sample during CTL induction −, during culture with IL-2 + (10 μg/ml), peptide addition +): 18.3%
Cytotoxic Activity (%) E/T Ratio 10 ([6]; Example 1-5, sample during CTL induction −, during culture with IL-2 + (10 μg/ml), peptide addition −): 0%
cytotoxic activity after continuous culture (in words) ([6]; sample 10 μg/ml during CTL induction and during continuous culture, 10 to 14 days): continuous culture of CTLs having an antigen-specific cytotoxic activity can be carried out
cytotoxic activity after continuous culture (in words) ([6]; sample 10 μg/ml only during continuous culture): maintaining an antigen-specific cytotoxic activity

hyaluronic acid
difference in the cytotoxic activity by the presence or absence of the addition during the induction [1]: almost no difference
cytotoxic activity after expansion for 14 days (in words) ([7]; MART1-specific CTLs, sample 10 μg/ml during CTL induction and during expansion): specific, high cytotoxic activity
Cytotoxic Activity (%) ([7]; E/T ratio 2): 9.1%
Cytotoxic Activity (%) ([7]; E/T ratio 6): 52.8%
Cytotoxic Activity (%) ([7]; E/T ratio 17): 74.4%
Cytotoxic Activity (%) [8]: 0%
Expansion Ratio [2]: × 217
Cytotoxic Activity (%) E/T Ratio 10 ([9]; peptide addition +): 95.5%
Cytotoxic Activity (%) E/T Ratio 10 ([9]; peptide addition −): 8.1%
cytotoxic activity after expansion according to the REM method (in words) ([9]; sample added at the stage of CTL induction prior to the expansion, EBV-B cells added): maintained at a high level
Cytotoxic Activity (%) E/T Ratio 10 ([3]; Example 3-2, sample 10 μg/ml during CTL induction +, during expansion +, addition of EBV-B cells −, peptide addition +): 60.0%
Cytotoxic Activity (%) E/T Ratio 10 ([3]; Example 3-2, sample 10 μg/ml during CTL induction +, during expansion +, addition of EBV-B cells −, peptide addition −): 2.3%
Cytotoxic Activity (%) ([3]; Example 4-1, expansion +, peptide addition +, E/T ratio 1): 31.1%
Cytotoxic Activity (%) ([3]; Example 4-1, expansion +, peptide addition +, E/T ratio 3): 49.8%
Cytotoxic Activity (%) ([3]; Example 4-1, expansion +, peptide addition +, E/T ratio 10): 90.8%
Cytotoxic Activity (%) ([3]; Example 4-1, expansion +, peptide addition +, E/T ratio 30): 105.6%
Cytotoxic Activity (%) ([3]; Example 4-1, expansion +, peptide addition −, E/T ratio 1): 7.3%
Cytotoxic Activity (%) ([3]; Example 4-1, expansion +, peptide addition −, E/T ratio 3): 8.6%
Cytotoxic Activity (%) ([3]; Example 4-1, expansion +, peptide addition −, E/T ratio 10): 13.1%
Cytotoxic Activity (%) ([3]; Example 4-1, expansion +, peptide addition −, E/T ratio 30): 17.0%
Cytotoxic Activity (%) ([3]; Example 4-2, expansion +, peptide addition +, E/T ratio 1): 7.2%
Cytotoxic Activity (%) ([3]; Example 4-2, expansion +, peptide addition +, E/T ratio 3): 23.3%
Cytotoxic Activity (%) ([3]; Example 4-2, expansion +, peptide addition +, E/T ratio 10): 59.6%
Cytotoxic Activity (%) ([3]; Example 4-2, expansion +, peptide addition +, E/T ratio 30): 85.1%
Cytotoxic Activity (%) ([3]; Example 4-2, expansion +, peptide addition −, E/T ratio 1): 0%
Cytotoxic Activity (%) ([3]; Example 4-2, expansion +, peptide addition −, E/T ratio 3): 0%
Cytotoxic Activity (%) ([3]; Example 4-2, expansion +, peptide addition −, E/T ratio 10): 1.9%
Cytotoxic Activity (%) ([3]; Example 4-2, expansion +, peptide addition −, E/T ratio 30): 14.3%
Cytotoxic Activity (%) ([3]; Example 4-2, expansion −, peptide addition +, E/T ratio 1): 9.9%
Cytotoxic Activity (%) ([3]; Example 4-2, expansion −, peptide addition +, E/T ratio 3): 22.1%
Cytotoxic Activity (%) ([3]; Example 4-2, expansion −, peptide addition +, E/T ratio 10): 47.7%
Cytotoxic Activity (%) ([3]; Example 4-2, expansion −, peptide addition +, E/T ratio 30): 78.0%
Cytotoxic Activity (%) ([3]; Example 4-2, expansion −, peptide addition −, E/T ratio 1): 3.0%
Cytotoxic Activity (%) ([3]; Example 4-2, expansion −, peptide addition −, E/T ratio 3): 1.4%
Cytotoxic Activity (%) ([3]; Example 4-2, expansion −, peptide addition −, E/T ratio 10): 4.7%
Cytotoxic Activity (%) ([3]; Example 4-2, expansion −, peptide addition −, E/T ratio 30): 9.3%
cytotoxic activity after expansion for 14 days (in words) ([3]; sample 10 μg/ml only during CTL induction): specific, high cytotoxic activity
Expansion Ratio ([4]; Example 3-2, sample 10 μg/ml during CTL induction +, during expansion +, addition of EBV-B cells −): × 335
Expansion Ratio ([4]; Example 4-1, sample 10 μg/ml: induction +, expansion +, 14 days): × 493
Expansion Ratio ([4]; Example 4-2, sample 10 μg/ml: induction +, expansion +, 14 days): × 423
Expansion Ratio ([4]; Example 4-2, sample 10 μg/ml: induction +, expansion −, 14 days): × 393
Expansion Ratio [10]: × 217
Expansion Ratio [11]: × 587
cytotoxic activity after expansion for 14 days (in words) [5]: specific, high cytotoxic activity
Cytotoxic Activity (%) ([5]; peptide addition +, E/T ratio 2): 50.3%
Cytotoxic Activity (%) ([5]; peptide addition +, E/T ratio 6): 67.7%
Cytotoxic Activity (%) ([5]; peptide addition −, E/T ratio 2): 3.6%
